Patent publication US4600788A, “4'-flavonecarboxylic acids and pharmaceutically acceptable derivatives their preparation, and their application” (Societe Cortial, S.A., priority 1983, dated 1986)
Counter-ions that a name gives are not always drawn. One block for each compound: values may come before it.

Experiments:
aldose reductase = target: T1, aldose reductase (Bos taurus, UniProt P16116); experiment: Inhibition of aldose reductase in vitro (reduction of glyceraldehyde to glycerol, spectrophotometric NADPH determination); type: biochemical; details: enzyme from beef crystalline lens; substrate glyceraldehyde; read-out: log 1/CI50 (CI50 = concentration in mole/l resulting in 50% inhibition of the enzymatic activity) (converted)
T1 construct: The enzyme is extracted from beef crystalline lens; from tissue; host or cells: beef crystalline lens
Protocol: The enzyme is extracted from beef crystalline lens by the method described by Hayman S. and Kinoshita J. H. (J. Biol Chem., 1965, 240, 2,877). The percentage of inhibition of the capacity of the enzyme to reduce glyceraldehyde to glycerol under the effect of the product to be tested is determined by the spectrophotometric determination of the amount of NADPH reacting according to the method described by Hayman and Kinoshita. We give below in parentheses after each product the value of the log 1/CI50 where CI50 represents the concentration expressed in mole/l resulting in 50% inhibition of the enzymatic activity: COR 19 85 (4.9); COR 19 91 (5.5); COR 19 93 (5.1); COR 19 94 (5.2); COR 19 99 (5.4); COR 35 01 (6.9); COR 35 02 (5.15); COR 35 07 (6.3); COR 35 09 (5.7); COR 35 11 (5.9); COR 35 19 (5.8); COR 35 22 (5.2).

mice = experiment: Toxicity in mice; type: in vivo; details: for LD0: orally
Toxicity in mice = type: in vivo; details: mouse, in vivo
rats [1] = experiment: Diuretic activity, method of Lipschitz et coll.; type: in vivo; details: oral administration of 20 mg/kg
Protocol: Besides their advantage in curative and preventive therapy of complications from diabetes, the products, which are the object of this invention, are also useful as diuretics. Thus, product COR35 07, tested in rats according to the method of Lipschitz et coll.(J. Pharm. Exp. Therap., 1943, 79, 97-110), results in an increase in urinary excretion of sodium (natruria was multiplied by 2.6 after oral administration of 20 mg/kg).

rats [2] = experiment: Galactose cataracts: degree of cataract marked 0 to 3 by ophthalmoscope; type: in vivo; details: 20% galactose diet, 100 mg/kg d
Protocol: Rats, 14 days old, were kept in a cage of 11 with a mother for 3 days. From the 4th to the 9th day, the animals received the product to be tested or the reference product. At the end of pretreatment, the mothers were removed. Two out of the 11 animals were eliminated to obtain batches of homogenous weight. The selected rats were divided 3 by 3 into cages at random, and the diet containing 20% galactose was put in place. […] The degree of cataract was evaluated by a marking system from 0 to 3.
The marks given to the treated animals were compared with those of the control animals by the Mann and Whitney U test (D. Schwartz, "Statistical Methods for the Use of Physicians and Biologists," Ed. Flammarion, Paris, 1963).

rats [3] = experiment: Neuropathy with streptozotocin: sorbitol and inositol levels in sciatic nerves, glycemia; type: in vivo; details: 100 mg/kg/d
Protocol: Four batches of 10 rats weighing about 200 g were treated from D-2 to D+3 with a gummy julep of the product to be tested. On D O the animals received an i.p. injection of 100 mg/kg of streptozotocin dissolved in a citrate buffer. The glycemia of the rats was determined 24 hours and 3 days after injection of the streptozotocin and the sciatic nerves were removed to determine the sorbitol and inositol levels. […] COR 35 01 had no effect on the glycemia of the animals.

SMILES: CCc1c(-c2ccc(C(=O)O)cc2)oc2cc(NC(C)=O)ccc2c1=O [COR 19 93, 7-acetamido-3-ethyl-4'-flavonecarboxylic acid]
IC50 (aldose reductase): 7.94 µM

SMILES: CCCc1c(-c2ccc(C(=O)O)cc2)oc2cc(NC(C)=O)ccc2c1=O [COR 19 91, 7-acetamido-3-propyl-4'-flavonecarboxylic acid]
IC50 (aldose reductase): 3.16 µM | LD0 (mice): more than 2000 mg/kg

SMILES: CCCc1c(-c2ccc(C(=O)OC)cc2)oc2cc(NC(=O)CN3CCOCC3)ccc2c1=O [COR35 17, methyl 7-(morpholinoacetamido)-3-propyl-4'-flavonecarboxylate]
mortality (Toxicity in mice; oral administration of 1000 mg/kg): 10%

SMILES: CCCc1c(-c2ccc(C(=O)O)cc2)oc2cc(NC(=O)CN3CCOCC3)ccc2c1=O [COR 35 02, 7-morpholinoacetamido-3-propyl-4'-flavonecarboxylic acid hydrochloride]
IC50 (aldose reductase): 7.08 µM

SMILES: CC(=O)Nc1ccc2c(=O)cc(-c3ccc(C(=O)O)cc3)oc2c1 [COR 19 85, 7-acetamido-4'-flavonecarboxylic acid]
IC50 (aldose reductase): 12.6 µM

SMILES: CCCc1c(-c2ccc(C(=O)OC)cc2)oc2cc(NS(C)(=O)=O)ccc2c1=O [COR 19 99, methyl 7-methanesulfonamido-3-propyl-4'-flavonecarboxylate]
IC50 (aldose reductase): 3.98 µM

SMILES: CCCc1c(-c2ccc(C(=O)O)cc2)oc2cc(NS(C)(=O)=O)ccc2c1=O [COR 35 01, 7-methanesulfonamido-3-propyl-4'-flavonecarboxylic acid]
IC50 (aldose reductase): 0.126 µM | mortality (mice; intraperitoneally, 250 mg/kg): did not cause any mortality | LD0 (mice): more than 2000 mg/kg | mortality (Toxicity in mice; ip, intraperitoneally, 500 mg/kg): 20% | sorbitol level in the sciatic nerves (rats [3]; D-2 to D+3, control 0.983±0.334): 0.426 ± 0.171 mg/kg | inositol level in the sciatic nerves (rats [3]; D-2 to D+3, control 1.6555±0.372): 1.184 ± 0.340 mg/kg

SMILES: CC(=O)Nc1ccc2c(=O)c(OC(C)=O)c(-c3ccc(C(=O)O)cc3)oc2c1 [COR 19 94, 7-Acetamido-3-acetoxy-4'-flavonecarboxylic acid]
IC50 (aldose reductase): 6.31 µM | LD0 (mice): more than 2000 mg/kg

Now from value to compound, other results behind:

IC50 (aldose reductase): 6.31 µM
SMILES: CCCc1c(-c2ccc(C(=O)O)cc2)oc2cc(S(N)(=O)=O)ccc2c1=O [COR 35 22, 7-sulfamoyl-3-propyl-4'-flavonecarboxylic acid]

IC50 (aldose reductase): 0.501 µM
SMILES: COC(=O)c1ccc(-c2oc3cc(NS(C)(=O)=O)ccc3c(=O)c2OS(C)(=O)=O)cc1 [COR 35 07, methyl 7-methanesulfonamido-3-methanesulfonyloxy-4'-flavonecarboxylate]
natruria multiplied by (increase in urinary excretion of sodium) (rats [1]): 2.6

IC50 (aldose reductase): 1.58 µM
SMILES: CCCc1c(-c2ccc(C(=O)O)cc2)oc2cc(S(=O)(=O)N(C)CCO)ccc2c1=O [COR 35 19, 7-(N-hydroxyethyl N-methylsulfamoyl)-3-propyl-4'-flavonecarboxylic acid]

IC50 (aldose reductase): 2 µM
SMILES: CCCc1c(-c2ccc(C(=O)O)cc2)oc2cc(S(=O)(=O)N(C)C)ccc2c1=O [COR 35 09, N,N-7-dimethylsulfamoyl-3-propyl-4'-flavonecarboxylic acid]
galactose cataract average index D + 1 (rats [2]; D+1, marks 0 to 3): 0.0 | galactose cataract average index D + 2 (rats [2]; D+2, marks 0 to 3): 0.0 | galactose cataract average index D + 3 (rats [2]; D+3, marks 0 to 3): 0.031 | galactose cataract average index D + 4 (rats [2]; D+4, marks 0 to 3, S): 0.47 | galactose cataract average index D + 5 (rats [2]; D+5, marks 0 to 3, S): 0.97 | galactose cataract average index D + 6 (rats [2]; D+6, marks 0 to 3, S): 1.44 | galactose cataract average index D + 7 (rats [2]; D+7, marks 0 to 3, S): 1.69 | galactose cataract average index D + 8 (rats [2]; D+8, marks 0 to 3, S): 1.81 | galactose cataract average index D + 9 (rats [2]; D+9, marks 0 to 3, S): 2.06 | galactose cataract average index D + 10 (rats [2]; D+10, marks 0 to 3, S): 1.88 | galactose cataract average index D + 11 (rats [2]; D+11, marks 0 to 3, S): 1.69 | galactose cataract average index D + 12 (rats [2]; D+12, marks 0 to 3, S): 1.81 | galactose cataract average index D + 13 (rats [2]; D+13, marks 0 to 3, S): 1.50

IC50 (aldose reductase): 1.26 µM
SMILES: CCCc1c(-c2ccc(C(=O)O)cc2)oc2cc(S(=O)(=O)NC)ccc2c1=O [COR 35 11, N-7-methylsulfamoyl-3-propyl-4'-flavonecarboxylic acid]
